One assay concerns the target AktK (Homo sapiens, UniProt P31749). Description: Luciferase-coupled chemiluminescence kinase assay (ATP consumption). The class given is biochemical. The note with it: read-out: AKT-1 IC50. In a few lines:
(§1)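 Activity is read as ATP depletion: luciferase-luciferin reagent added after a 3 h ambient-temperature kinase reaction, with total ATP use limited to 25-60%. Before ATP addition, 2.5-5 nM kinase and compound were preincubated 30 min in Tris pH 7.5/MgCl2/TX-100/DTT buffer; […].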

The next assay deals with p70S6K (Homo sapiens, UniProt P23443). The assay is described as above. The class given is biochemical. In a few lines: as §1

Read-outs that look alike come from different tables or passages of the source. Bounds are passed on as bounds.

AktK, sequence (P31749 whole entry): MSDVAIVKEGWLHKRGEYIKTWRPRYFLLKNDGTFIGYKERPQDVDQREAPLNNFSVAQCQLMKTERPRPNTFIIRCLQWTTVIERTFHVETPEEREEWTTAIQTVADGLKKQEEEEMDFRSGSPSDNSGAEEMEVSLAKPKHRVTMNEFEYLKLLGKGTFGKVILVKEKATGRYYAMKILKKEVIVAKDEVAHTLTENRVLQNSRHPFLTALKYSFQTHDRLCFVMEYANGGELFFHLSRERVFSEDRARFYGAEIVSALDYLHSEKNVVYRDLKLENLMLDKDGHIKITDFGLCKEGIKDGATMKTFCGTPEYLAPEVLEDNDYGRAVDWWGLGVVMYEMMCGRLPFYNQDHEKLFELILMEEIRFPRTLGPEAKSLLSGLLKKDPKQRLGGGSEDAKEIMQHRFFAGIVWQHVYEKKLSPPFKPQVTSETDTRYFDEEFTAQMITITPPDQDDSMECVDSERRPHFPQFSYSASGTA
p70S6K, sequence (P23443 whole entry): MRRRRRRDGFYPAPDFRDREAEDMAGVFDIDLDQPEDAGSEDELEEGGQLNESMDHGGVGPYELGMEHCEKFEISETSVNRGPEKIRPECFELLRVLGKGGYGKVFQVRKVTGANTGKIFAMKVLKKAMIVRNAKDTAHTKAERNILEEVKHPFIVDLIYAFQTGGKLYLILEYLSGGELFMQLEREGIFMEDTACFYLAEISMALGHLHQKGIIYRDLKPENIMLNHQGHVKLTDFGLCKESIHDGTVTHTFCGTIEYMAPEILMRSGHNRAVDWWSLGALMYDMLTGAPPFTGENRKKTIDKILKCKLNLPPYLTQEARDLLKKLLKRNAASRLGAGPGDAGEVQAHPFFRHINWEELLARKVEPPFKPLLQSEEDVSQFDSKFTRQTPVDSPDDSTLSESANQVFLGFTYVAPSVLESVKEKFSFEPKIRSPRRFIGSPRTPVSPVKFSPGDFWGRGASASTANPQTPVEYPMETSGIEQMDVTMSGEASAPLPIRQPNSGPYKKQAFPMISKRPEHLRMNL

Take `c1ccc(N2CCN(c3ncnc4[nH]ccc34)CC2)cc1` [Entry 295, 4-(4-phenylpiperazin-1-yl)-7H-pyrrolo[2,3-d]pyrimidine]: the IC50 is at least 10 µM on AktK and 0.1 to 1 µM against p70S6K.

`Cc1noc(-c2cc(NCCN3CCCC3)c(C)c(N3CCN(c4ncnc5[nH]nc(Br)c45)CC3)c2)n1` [Entry 242, 3-[4-(3-bromo-1H-pyrazolo[3,4-d]pyrimidin-4-yl)piperazin-1-yl]-2-methyl-5-(3-methyl-1,2,4-oxadiazol-5-yl)-N-(2-pyrrolidin-1-ylethyl)aniline]: the IC50 was under 0.1 µM at AktK (Table 1, class symbols per key) and under 0.1 µM against p70S6K (Table 1, class symbols per key).

Take `FC(F)(F)c1cnc(N2CCN(c3ncnc4[nH]nc(Br)c34)CC2)c(Cl)c1` [Entry 136, 3-bromo-4-{4-[3-chloro-5-(trifluoromethyl)pyridin-2-yl]piperazin-1-yl}-1H-pyrazolo[3,4-d]pyrimidine]: the IC50 at AktK (Table 1, class symbols per key) is at least 10 µM; at p70S6K (Table 1, class symbols per key), 1 to 10 µM.

Take `Cc1c(NCCN2CCCC2)cc(OCC(F)(F)F)cc1N1CCN(c2ncnc3[nH]nc(Br)c23)CC1` [Entry 285, 3-[4-(3-bromo-1H-pyrazolo[3,4-d]pyrimidin-4-yl)piperazin-1-yl]-2-methyl-N-(2-pyrrolidin-1-ylethyl)-5-[(2,2,2-trifluoroethyl)oxy]aniline]: the IC50 at AktK (Table 1, class symbols per key) is under 0.1 µM; against p70S6K (Table 1, class symbols per key), under 0.1 µM.

`CNC(=O)c1cc(NCCN2CCCC2)c(C)c(N2CCN(c3ncnc4[nH]nc(Br)c34)CC2)c1` [Entry 202, 3-[4-(3-bromo-1H-pyrazolo[3,4-d]pyrimidin-4-yl)piperazin-1-yl]-N,4-dimethyl-5-[(2-pyrrolidin-1-ylethyl)amino]benzamide]: the IC50 is 0.1 to 1 µM on AktK (Table 1, class symbols per key) and under 0.1 µM against p70S6K (Table 1, class symbols per key).

Take `COc1cc(NCCN2CCCC2)c(C)c(N2CCN(c3ncnc4[nH]nc(Br)c34)CC2)c1` [Entry 255, 3-[4-(3-bromo-1H-pyrazolo[3,4-d]pyrimidin-4-yl)piperazin-1-yl]-2-methyl-5-(methyloxy)-N-(2-pyrrolidin-1-ylethyl)aniline]: the IC50 is 0.1 to 1 µM at AktK (Table 1, class symbols per key) and under 0.1 µM against p70S6K (Table 1, class symbols per key).

On to `COCCOc1cc(NCCN2CCCC2)c(C)c(N2CCN(c3ncnc4[nH]nc(Br)c34)CC2)c1` [Entry 223, 3-[4-(3-bromo-1H-pyrazolo[3,4-d]pyrimidin-4-yl)piperazin-1-yl]-2-methyl-5-{[2-(methyl-oxy)ethyl]oxy}-N-(2-pyrrolidin-1-ylethyl)aniline], for which the IC50 at AktK (Table 1, class symbols per key) was 0.1 to 1 µM; against p70S6K (Table 1, class symbols per key), under 0.1 µM.

On to `Cc1ccc(Cl)cc1N1CCN(c2ncnc3[nH]nc(-c4ccc(C#N)cc4)c23)CC1` [Entry 366, 4-{4-[4-(5-chloro-2-methylphenyl)piperazin-1-yl]-1H-pyrazolo[3,4-d]pyrimidin-3-yl}benzonitrile], for which the IC50 on AktK and against p70S6K was 1 to 10 µM in each case.

For `CCN1CCN(CCOc2cc(Cl)cc(N3CCN(c4ncnc5[nH]nc(C(F)(F)F)c45)CC3)c2C)CC1` [Entry 81, 4-[4-(5-chloro-3-{[2-(4-ethylpiperazin-1-yl)ethyl]oxy}-2-methylphenyl)piperazin-1-yl]-3-(trifluoromethyl)-1H-pyrazolo[3,4-d]pyrimidine], the IC50 was 0.1 to 1 µM on AktK (Table 1, class symbols per key) and under 0.1 µM at p70S6K (Table 1, class symbols per key).

`Fc1ccc(N2CCN(c3ncnc4[nH]nc(Br)c34)CC2)cc1Cl` [Entry 93, 3-bromo-4-[4-(3-chloro-4-fluorophenyl)piperazin-1-yl]-1H-pyrazolo[3,4-d]pyrimidine]: the IC50 was 1 to 10 µM on AktK (Table 1, class symbols per key) and under 0.1 µM at p70S6K (Table 1, class symbols per key).

`Cc1c(NCCN2CCCC2)cc(C#CC(C)(C)C)cc1N1CCN(c2ncnc3[nH]nc(Br)c23)CC1` [Entry 238, 3-[4-(3-bromo-1H-pyrazolo[3,4-d]pyrimidin-4-yl)piperazin-1-yl]-5-(3,3-dimethylbut-1-yn-1-yl)-2-methyl-N-(2-pyrrolidin-1-ylethyl)aniline]: the IC50 on AktK (Table 1, class symbols per key) was under 0.1 µM; at p70S6K (Table 1, class symbols per key) it was under 0.1 µM.

Regarding `CCc1n[nH]c2ncnc(N3CCN(c4cc(F)cc(NCCN5CCCC5)c4C)CC3)c12` [Entry 78, 3-[4-(3-ethyl-1H-pyrazolo[3,4-d]pyrimidin-4-yl)piperazin-1-yl]-5-fluoro-2-methyl-N-(2-pyrrolidin-1-ylethyl)aniline], the IC50 was 1 to 10 µM on AktK (Table 1, class symbols per key) and under 0.1 µM against p70S6K (Table 1, class symbols per key).

As to `Fc1ccccc1N1CCN(c2ncnc3[nH]cnc23)CC1` [Entry 300, 6-[4-(2-fluorophenyl)piperazin-1-yl]-9H-purine], the IC50 at AktK was at least 10 µM; at p70S6K it was 1 to 10 µM.

`Cc1ccc(C(=O)O)cc1N1CCN(c2ncnc3[nH]nc(Br)c23)CC1` [Entry 180, 3-[4-(3-bromo-1H-pyrazolo[3,4-d]pyrimidin-4-yl)piperazin-1-yl]-4-methylbenzoic acid]: the IC50 at AktK (Table 1, class symbols per key) is 0.1 to 1 µM; at p70S6K (Table 1, class symbols per key), under 0.1 µM.

Consider `CCc1n[nH]c2ncnc(N3CCN(c4cccc(Cl)c4)C(C(=O)NCCN4CCOCC4)C3)c12` (stereo not shown) [Entry 383, 1-(3-chlorophenyl)-4-(3-ethyl-1H-pyrazolo[3,4-d]pyrimidin-4-yl)-N-(2-morpholin-4-ylethyl)piperazine-2-carboxamide], for which the IC50 at AktK is at least 10 µM; at p70S6K it was 1 to 10 µM.

Regarding `Cc1c(NCCN(C)C(C)C)cc(Cl)cc1N1CCN(c2ncnc3[nH]nc(Br)c23)CC1` [Entry 193, N′-{3-[4-(3-bromo-1H-pyrazolo[3,4-d]pyrimidin-4-yl)piperazin-1-yl]-5-chloro-2-methylphenyl}-N-methyl-N-(1-methylethyl)ethane-1,2-diamine], the IC50 on AktK (Table 1, class symbols per key) was under 0.1 µM; on p70S6K (Table 1, class symbols per key), under 0.1 µM.

As to `CCc1n[nH]c2ncnc(N3CCN(c4cc(OCC(F)(CF)CF)cc(NCCN5CCCC5)c4C)CC3)c12` [Entry 256, 5-{[2,3-difluoro-2-(fluoromethyl)propyl]oxy}-3-[4-(3-ethyl-1H-pyrazolo[3,4-d]pyrimidin-4-yl)pipera-zin-1-yl]-2-methyl-N-(2-pyrrolidin-1-ylethyl)aniline], the IC50 was under 0.1 µM at AktK (Table 1, class symbols per key) and under 0.1 µM on p70S6K (Table 1, class symbols per key).

For the compound `Cc1ccc(Cl)cc1N1CCN(c2ncnc3[nH]nc(Br)c23)C[C@H]1C` [Entry 176, 3-bromo-4-[(3R)-4-(5-chloro-2-methylphenyl)-3-methylpiperazin-1-yl]-1H-pyrazolo[3,4-d]pyrimidine], the IC50 at AktK (Table 1, class symbols per key) was at least 10 µM; on p70S6K (Table 1, class symbols per key) it was 0.1 to 1 µM.

`CCc1n[nH]c2ncnc(N3CCN(c4nc(C)cnc4C)CC3)c12` [Entry 101, 4-[4-(3,6-dimethylpyrazin-2-yl)piperazin-1-yl]-3-ethyl-1H-pyrazolo[3,4-d]pyrimidine]: the IC50 on AktK (Table 1, class symbols per key) is at least 10 µM; at p70S6K (Table 1, class symbols per key), 0.1 to 1 µM.

As to `Cc1c(CCCN2CCOCC2)cc(Cl)cc1N1CCN(c2ncnc3[nH]nc(Br)c23)CC1` [Entry 18, 3-bromo-4-{4-[5-chloro-2-methyl-3-(3-morpholin-4-ylpropyl)phenyl]piperazin-1-yl}-1H-pyrazolo[3,4-d]pyrimidine], the IC50 is 0.1 to 1 µM at AktK (Table 1, class symbols per key) and under 0.1 µM at p70S6K (Table 1, class symbols per key).

The record behind these values is patent US8076338B2, “Kinase modulators and methods of use” (Exelixis, Inc., priority 2004, dated 2011).
